Experimental data reported in patent US20080031818A1, “Use of Modulators of a Novel Form of Muscle Selective Calcineurin Interacting Protein (Mcip-1-38) as a Treatment for Cardiovascular Diseases” (GILEAD COLORADO, INC., priority 2004, published 2008).

Experiments:
[1] = tested on: neonatal rat ventricular myocytes (NRVM); experiment: Cardiomyocyte cell volume (Coulter counter); assay type: cell-based; details: 48 hours exposure to PE, versus untreated controls, FIG. 9
Procedure: NRVM culture. For preparations of neonatal rat ventricular myocytes (NRVMs), hearts were removed from 10-20 newborn (1-2 days old) Sprague-Dawley rats. Isolated ventricles were pooled, minced and dispersed by three 20-minute incubations at 37° C. in Ads buffer (116 mM NaCl, 20 mM HEPES, 10 mM NaH2PO4, 5.5 mM glucose, 5 mM KCl, […], pH 7.4) containing collagenase Type II (65 units/ml, Worthington) and pancreatin (0.6 mg/ml, GibcoBRL). Dispersed cells were applied to a discontinuous gradient of 40.5% and 58.5% (v/v) Percoll (Amersham Biosciences), centrifuged, and myocytes collected from the interface layer. […]
Hypertrophy and toxicity assays. Primary hypertrophy endpoints for NRVM included quantitation of ANF secretion, total cellular protein and cell volume. ANF in media supernatants was quantitated by competitive ELISA using a monoclonal anti-ANF antibody (Biodesign) and a biotinylated ANF peptide (Phoenix Peptide). Total cellular protein was quantitated by standard Coomassie dye-binding assay; cells were lysed in protein assay reagent (BioRad) and absorbance at A595 was measured after 1 hour. […] After recovery by centrifugation, cell pellets were washed in PBS, resuspended in 10 ml IsoFlow electrolyte solution (Beckman-Coulter) and analyzed with a Z2 Coulter Particle Counter and Size Analyzer (Beckman-Coulter). […]

beta myosin heavy chain = experiment: Beta myosin heavy chain protein by cytoblot; assay type: cell-based, rat; details: NRVM, 48 hours exposure to PE, FIG. 10A
Procedure: NRVM culture. For preparations of neonatal rat ventricular myocytes (NRVMs), hearts were removed from 10-20 newborn (1-2 days old) Sprague-Dawley rats. Isolated ventricles were pooled, minced and dispersed by three 20-minute incubations at 37° C. in Ads buffer (116 mM NaCl, 20 mM HEPES, 10 mM NaH2PO4, 5.5 mM glucose, 5 mM KCl, […], pH 7.4) containing collagenase Type II (65 units/ml, Worthington) and pancreatin (0.6 mg/ml, GibcoBRL). Dispersed cells were applied to a discontinuous gradient of 40.5% and 58.5% (v/v) Percoll (Amersham Biosciences), centrifuged, and myocytes collected from the interface layer. Myocyte preparations were pre-plated in Dulbecco's modified Eagle's medium (DMEM, Cellgro), supplemented with 10% (v/v) fetal bovine serum (FBS, HyClone), 4 mM L-glutamine and 1% penicillin/streptomycin for 1 hour at 37° C. to reduce fibroblast contamination, then plated at a density of 2.5′10^5 cells per well on 6-well tissue culture plates (or 10,000 cells/well on 96-well tissue culture plates) coated with a 0.2% (w/v) gelatin solution. After 24 hours in culture, myocyte preparations were transferred to serum-free maintenance medium (DMEM supplemented with 0.1% (v/v) Nutridoma (Roche), L-glutamine and penicillin/streptomycin). […]
Myosin heavy chain protein quantitation by cytoblot. […] Plates were read in a 96-well luminometer (Packard Fusion).

## CNC[C@H](O)c1cccc(O)c1 [phenylephrine]
[1]
  increase in cell volume: approximately 50%
Beta myosin heavy chain
  beta myosin protein expression: increased beta myosin protein expression by several fold
